Where two headings read alike, the source gives them in different places.
Legend:
[1] = biological target: T1, human dopamine transporter (hDAT) (Homo sapiens, UniProt Q01959); experiment: biochemical; format: binding
[2] = biological target: T2, human serotonin transporter (hSERT) (Homo sapiens, UniProt P31645); experiment: biochemical; details: [125I]RTI-55, read-out: SERT binding affinity Ki
[3] = biological target: T3, human norepinephrine transporter (hNET) (Homo sapiens, UniProt P23975); experiment: biochemical; details: [125I]RTI-55, read-out: NET binding affinity Ki
[4] = biological target: T1, human dopamine transporter (hDAT); experiment: cell-based
[5] = biological target: T2, human serotonin transporter (hSERT); experiment: cell-based
[6] = biological target: T3, human norepinephrine transporter (hNET); experiment: cell-based; details: read-out: Reuptake Inhibition [3H]NE IC50
[7] = Reuptake Inhibition [3H]DA IC50, Table 1-1
[8] = Reuptake Inhibition [3H]5-HT IC50, Table 1-1
[9] = Reuptake Inhibition [3H]DA IC50, Table 2-1
[10] = Reuptake Inhibition [3H]5-HT IC50, Table 2-1

T3 sequence (P23975 whole entry): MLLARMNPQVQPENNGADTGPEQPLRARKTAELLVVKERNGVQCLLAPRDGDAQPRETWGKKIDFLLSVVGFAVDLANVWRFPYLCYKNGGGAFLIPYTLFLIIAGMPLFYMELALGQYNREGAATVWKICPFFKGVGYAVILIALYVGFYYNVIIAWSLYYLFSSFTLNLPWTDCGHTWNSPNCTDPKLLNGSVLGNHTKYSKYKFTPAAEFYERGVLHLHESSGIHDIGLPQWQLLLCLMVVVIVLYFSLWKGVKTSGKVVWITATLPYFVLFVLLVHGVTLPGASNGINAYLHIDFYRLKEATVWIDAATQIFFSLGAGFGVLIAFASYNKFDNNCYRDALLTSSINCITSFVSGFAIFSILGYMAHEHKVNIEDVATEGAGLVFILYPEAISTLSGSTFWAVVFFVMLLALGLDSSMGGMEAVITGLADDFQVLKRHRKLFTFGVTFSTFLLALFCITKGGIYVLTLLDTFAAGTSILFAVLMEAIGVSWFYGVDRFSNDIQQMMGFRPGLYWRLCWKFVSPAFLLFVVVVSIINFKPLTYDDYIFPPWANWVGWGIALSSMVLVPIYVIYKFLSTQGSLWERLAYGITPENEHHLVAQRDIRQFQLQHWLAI
T2 sequence (P31645 whole entry): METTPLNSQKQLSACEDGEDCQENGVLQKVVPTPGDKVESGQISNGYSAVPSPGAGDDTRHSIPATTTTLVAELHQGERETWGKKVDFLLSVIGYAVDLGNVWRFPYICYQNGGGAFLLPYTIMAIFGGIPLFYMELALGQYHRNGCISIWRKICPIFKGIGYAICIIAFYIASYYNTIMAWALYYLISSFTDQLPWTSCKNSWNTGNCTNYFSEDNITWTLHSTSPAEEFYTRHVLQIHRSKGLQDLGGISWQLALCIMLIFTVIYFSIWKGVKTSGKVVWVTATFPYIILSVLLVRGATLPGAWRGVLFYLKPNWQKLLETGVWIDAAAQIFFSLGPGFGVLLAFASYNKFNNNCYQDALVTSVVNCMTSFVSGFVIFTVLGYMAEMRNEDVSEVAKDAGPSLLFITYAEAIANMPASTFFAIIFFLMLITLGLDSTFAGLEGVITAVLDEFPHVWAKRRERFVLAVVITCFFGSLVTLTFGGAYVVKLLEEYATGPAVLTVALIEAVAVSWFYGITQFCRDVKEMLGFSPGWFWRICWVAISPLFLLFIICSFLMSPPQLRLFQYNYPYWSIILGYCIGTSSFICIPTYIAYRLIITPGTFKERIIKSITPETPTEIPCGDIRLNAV
T1 sequence (Q01959 whole entry): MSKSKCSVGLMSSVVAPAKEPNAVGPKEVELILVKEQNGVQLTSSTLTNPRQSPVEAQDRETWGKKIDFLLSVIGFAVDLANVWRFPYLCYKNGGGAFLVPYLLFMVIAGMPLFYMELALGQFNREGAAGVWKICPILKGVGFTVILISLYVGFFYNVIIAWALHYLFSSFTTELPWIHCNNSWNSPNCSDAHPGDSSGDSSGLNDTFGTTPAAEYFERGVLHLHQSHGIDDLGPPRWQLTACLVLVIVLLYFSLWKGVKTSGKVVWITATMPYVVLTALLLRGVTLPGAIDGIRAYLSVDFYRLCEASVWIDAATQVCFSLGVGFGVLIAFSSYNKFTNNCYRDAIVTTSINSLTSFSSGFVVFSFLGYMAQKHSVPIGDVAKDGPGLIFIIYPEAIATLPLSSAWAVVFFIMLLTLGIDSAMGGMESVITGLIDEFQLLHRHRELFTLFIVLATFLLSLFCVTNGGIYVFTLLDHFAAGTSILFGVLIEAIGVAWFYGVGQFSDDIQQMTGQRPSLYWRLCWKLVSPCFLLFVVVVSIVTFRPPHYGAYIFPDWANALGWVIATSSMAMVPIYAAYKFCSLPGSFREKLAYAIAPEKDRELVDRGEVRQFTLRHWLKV

Compound	Ki [1] [nM]	Binding Ratios NET/DAT ([1]; Table 1)	Binding Ratios SERT/DAT ([1]; Table 1)	Ki ([2]; Table 1) [µM]	Ki ([3]; Table 1) [nM]	IC50 [4, 7] [nM]	Discrimination Ratios [3H]DA reuptake/DAT binding ([4]; Table 1-1)	IC50 [5, 8] [nM]	IC50 ([6]; Table 1-1) [nM]	Binding Ratios NET/DAT ([1]; Table 2)	Binding Ratios SERT/DAT ([1]; Table 2)	Ki ([2]; Table 2) [µM]	Ki ([3]; Table 2) [nM]	IC50 [4, 9] [nM]	Discrimination Ratios [3H]DA reuptake/DAT binding ([4]; Table 2-1)	IC50 [5, 10] [nM]	IC50 ([6]; Table 2-1) [nM]	further results
Fc1ccc(C(OCCCCN2CCNCC2)c2ccc(F)cc2)cc1 [Compound 3]																		Binding Ratios NET/DAT ([1]; Table 5): 5.7; Binding Ratios SERT/DAT ([1]; Table 5): 3.2; Ki ([1]; Table 5, [125I]RTI-55, oxalate salts, read-out: DAT binding affinity Ki): 600 ± 190 nM; Ki ([2]; Table 5, oxalate salts): 1.9 ± 0.33 µM; Ki ([3]; Table 5, oxalate salts): 3400 ± 1500 nM; Discrimination Ratios (DR) [3H]DA reuptake/DAT binding ([4]; Table 6): 1.7; IC50 ([4]; Table 6, read-out: Reuptake Inhibition [3H]DA IC50): 1000 ± 190 nM; IC50 ([5]; Table 6, read-out: Reuptake Inhibition [3H]5-HT IC50): 2170 ± 78 nM; IC50 ([6]; Table 6): 850 ± 270 nM
O=C(Nc1ccc(F)cc1)N1CCN(CCCCOC(c2ccc(F)cc2)c2ccc(F)cc2)CC1 [Compound 4]	60 ± 8	2.2	0.2	0.014 ± 0.006	133 ± 18	9 ± 3	0.2	68 ± 28	45 ± 17									
O=C(NCc1ccc(F)cc1)N1CCN(CCCCOC(c2ccc(F)cc2)c2ccc(F)cc2)CC1 [Compound 5]	437 ± 12	1.6	0.2	0.275 ± 0.021	706 ± 153	53 ± 22	0.1	6 ± 1	51 ± 4									
Fc1ccc(C(OCCCCN2CCN(C(=S)Nc3cccnc3)CC2)c2ccc(F)cc2)cc1 [Compound 6]	170 ± 24	14.4	6.4	1.08 ± 0.3	2450 ± 367	97 ± 19	0.6	308 ± 102	359 ± 108									
O=C(NS(=O)(=O)c1ccc(F)cc1)N1CCN(CCCCOC(c2ccc(F)cc2)c2ccc(F)cc2)CC1 [Compound 7]		8.1	9.5	3.16 ± 0.666	2690 ± 258		0.6		836 ± 93									Ki ([1]; Table 1, [125I]RTI-55, read-out: DAT binding affinity Ki): 334 ± 25 nM; IC50 ([4]; Table 1-1, read-out: Reuptake Inhibition [3H]DA IC50): 206 ± 64 nM; IC50 ([5]; Table 1-1, read-out: Reuptake Inhibition [3H]5-HT IC50): 1620 ± 769 nM
O=C(Nc1ccc(-c2ccccc2)cc1)N1CCN(CCCCOC(c2ccc(F)cc2)c2ccc(F)cc2)CC1 [Compound 8]	67	104	>149	> 10	6940	419 ± 34	6.3	1020 ± 320	56.3 ± 9.4									Ki ([2]; Table 1, bound given in μM): > 10 µM
NCC1CCCN(CCCCOC(c2ccc(F)cc2)c2ccc(F)cc2)C1 (stereo not drawn) [Compound 10]	113									4.8	7.8	0.883	537 ± 112	31	0.3	571 ± 127		
O=C(NCC1CCCN(CCCCOC(c2ccc(F)cc2)c2ccc(F)cc2)C1)c1cccc(C(F)(F)F)c1 (stereo not drawn) [Compound 11]	403 ± 81									0.1	1.2	0.496 ± 0.177	49 ± 21	46	0.1	511	53 ± 3	
O=C(NCC1CCCN(CCCCOC(c2ccc(F)cc2)c2ccc(F)cc2)C1)Nc1ccc(F)cc1 (stereo not drawn) [Compound 12]	93									1.1	2.1	0.198	99	92 ± 24	1.0	123 ± 16	20	
O=C(NCc1ccc(F)cc1)NCC1CCCN(CCCCOC(c2ccc(F)cc2)c2ccc(F)cc2)C1 (stereo not drawn) [Compound 13]	203 ± 68									0.3	2.7	0.545 ± 0.194	60	85 ± 39	0.4	177 ± 18	136 ± 32	
